What was measured:
[1] = Coagulating activity (coagulation agents for water treatment), graded relative to FLO; design: key: +++: higher activity than FLO; ++: equivalent activity of FLO; +: lower activity than FLO; −: no activity observed; settings: coagulating activity compared with FLO
Source text: (§1) More information regarding the detailed description of the invention (e.g. material & methods, experimental results) can be found in international patent application PCT/CH03/00568 which is incorporated by reference.

[2] = Antimicrobial (antibiotic) activity, graded relative to FLO; format: cell-based; design: key: +++: higher activity than FLO; ++: equivalent activity of FLO; +: lower activity than FLO; −: no activity observed; settings: antimicrobial activity compared with FLO
Source text: as §1

## AVQLTHQQQGQV [P2c, derivative of FLO]
[1]
  Coag.: −
[2]
  antlbt.: −

## GQVGPQQVRQMYRVASNIPST [P3, derivative of FLO]
[1]
  Coag.: −
[2]
  antlbt.: −

## PQRCPSLRQAV [P2a, derivative of FLO]
[1]
  Coag.: −
[2]
  antlbt.: −

## PQRCPSLRQAVQLTHQ [P2ab, derivative of FLO]
[1]
  Coag.: ++

## PQRCPSLRQAVQLTHQQQGQV [P2, derivative of FLO]
[1]
  Coag.: ++
[2]
  antlbt.: +

## PQRCPSLRQAVQLTHQQQRQV [P2GR40, derivative of FLO]
[1]
  Coag.: +++
[2]
  antlbt.: ++

## QGPGRQPDFQRCGQQLRNISPP [P1, derivative of FLO]
[1]
  Coag.: −

## QGPGRQPDFQRCGQQLRNISPPQRCPSLRQAVQLTHQQQGQVGPQQRQMYRVASNIPST [Flo, protein called FLO, disclosed in WO 03/008441 A2; coagulation and antimicrobial agent, reference compound]
[1]
  Coag.: ++
[2]
  antlbt.: ++

## RCGQQLRNISPPQRCPSLRQAVQLTHQQQGQ [P2.1, derivative of FLO]
[1]
  Coag.: −

## SLRQAVQLTHQ [P2b, derivative of FLO]
[1]
  Coag.: −
[2]
  antlbt.: −

— patent publication US20070099838A1, “Plant-derived peptides harboring water-cleaning and antimicrobial activities” (OPTIMA ENVIRONNEMENT S.A., priority 2003, published 2007)
